In ChEMBL document CHEMBL4507268 (2021):

How the values were obtained:
Details in all cases: Compound concentration 1000.0 nM
[1] = target: Phosphatidylinositol 4-phosphate 3-kinase C2 domain-containing subunit beta (Homo sapiens) (UniProt O00750)
[2] = target: T1, Myosin-IIIb (Homo sapiens) (UniProt Q8WXR4)
T1 sequence (whole entry): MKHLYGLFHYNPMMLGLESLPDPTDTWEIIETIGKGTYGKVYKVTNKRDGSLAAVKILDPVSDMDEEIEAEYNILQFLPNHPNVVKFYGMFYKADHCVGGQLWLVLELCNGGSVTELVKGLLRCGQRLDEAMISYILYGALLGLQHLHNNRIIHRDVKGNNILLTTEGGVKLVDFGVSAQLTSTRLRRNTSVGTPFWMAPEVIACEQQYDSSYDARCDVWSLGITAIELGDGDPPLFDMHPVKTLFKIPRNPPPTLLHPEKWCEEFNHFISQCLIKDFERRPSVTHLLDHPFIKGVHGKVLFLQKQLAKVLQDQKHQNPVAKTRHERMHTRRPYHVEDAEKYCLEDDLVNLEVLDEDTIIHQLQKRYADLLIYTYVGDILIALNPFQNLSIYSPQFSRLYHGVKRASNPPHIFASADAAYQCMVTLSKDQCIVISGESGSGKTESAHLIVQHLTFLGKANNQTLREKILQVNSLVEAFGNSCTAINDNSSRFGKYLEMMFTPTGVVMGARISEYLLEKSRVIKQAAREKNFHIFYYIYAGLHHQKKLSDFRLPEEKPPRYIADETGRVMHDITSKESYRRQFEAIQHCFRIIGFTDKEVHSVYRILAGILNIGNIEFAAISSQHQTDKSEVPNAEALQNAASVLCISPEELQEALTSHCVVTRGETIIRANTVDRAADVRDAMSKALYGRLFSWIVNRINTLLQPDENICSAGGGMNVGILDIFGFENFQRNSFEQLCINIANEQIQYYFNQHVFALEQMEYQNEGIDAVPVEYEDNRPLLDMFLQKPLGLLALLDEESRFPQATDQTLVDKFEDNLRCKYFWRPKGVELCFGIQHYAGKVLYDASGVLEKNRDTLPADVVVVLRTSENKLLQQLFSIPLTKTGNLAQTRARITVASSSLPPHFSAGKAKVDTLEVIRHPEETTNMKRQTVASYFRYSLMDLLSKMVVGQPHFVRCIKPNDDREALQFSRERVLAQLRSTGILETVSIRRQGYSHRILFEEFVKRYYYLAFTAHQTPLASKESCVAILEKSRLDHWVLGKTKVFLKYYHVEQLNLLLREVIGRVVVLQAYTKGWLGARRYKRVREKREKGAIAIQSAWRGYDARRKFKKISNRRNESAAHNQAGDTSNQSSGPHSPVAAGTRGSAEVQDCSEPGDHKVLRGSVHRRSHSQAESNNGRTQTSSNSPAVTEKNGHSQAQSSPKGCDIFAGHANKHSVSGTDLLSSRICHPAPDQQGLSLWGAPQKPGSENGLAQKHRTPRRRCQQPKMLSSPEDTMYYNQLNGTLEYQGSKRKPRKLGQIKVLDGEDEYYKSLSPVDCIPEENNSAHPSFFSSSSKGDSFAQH

[3] = target: Megakaryocyte-associated tyrosine-protein kinase (Homo sapiens) (UniProt P42679)
[4] = target: Serine/threonine-protein kinase tousled-like 2 (Homo sapiens) (UniProt Q86UE8)
[5] = target: T2, Serine/threonine-protein kinase ICK (Homo sapiens) (UniProt Q9UPZ9)
T2 sequence (whole entry): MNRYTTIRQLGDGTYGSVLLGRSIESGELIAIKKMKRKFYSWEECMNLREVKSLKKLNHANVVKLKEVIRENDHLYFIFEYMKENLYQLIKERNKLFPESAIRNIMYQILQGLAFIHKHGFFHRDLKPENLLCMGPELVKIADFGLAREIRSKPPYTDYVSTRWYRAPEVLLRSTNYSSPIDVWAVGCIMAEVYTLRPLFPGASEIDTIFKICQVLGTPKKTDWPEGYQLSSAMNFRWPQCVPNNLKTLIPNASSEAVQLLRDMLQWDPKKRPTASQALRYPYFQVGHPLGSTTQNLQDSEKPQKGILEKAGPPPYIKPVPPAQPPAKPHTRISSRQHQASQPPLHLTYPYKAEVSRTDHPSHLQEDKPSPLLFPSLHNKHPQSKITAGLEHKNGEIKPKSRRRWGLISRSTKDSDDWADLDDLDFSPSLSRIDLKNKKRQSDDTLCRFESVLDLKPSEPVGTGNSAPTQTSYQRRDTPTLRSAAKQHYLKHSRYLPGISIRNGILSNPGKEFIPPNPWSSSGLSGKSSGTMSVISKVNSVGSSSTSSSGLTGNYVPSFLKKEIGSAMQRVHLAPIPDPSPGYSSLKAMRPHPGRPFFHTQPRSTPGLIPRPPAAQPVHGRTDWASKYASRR

[6] = target: T3, Inhibitor of nuclear factor kappa-B kinase subunit alpha (Homo sapiens) (UniProt O15111)
T3 sequence (whole entry): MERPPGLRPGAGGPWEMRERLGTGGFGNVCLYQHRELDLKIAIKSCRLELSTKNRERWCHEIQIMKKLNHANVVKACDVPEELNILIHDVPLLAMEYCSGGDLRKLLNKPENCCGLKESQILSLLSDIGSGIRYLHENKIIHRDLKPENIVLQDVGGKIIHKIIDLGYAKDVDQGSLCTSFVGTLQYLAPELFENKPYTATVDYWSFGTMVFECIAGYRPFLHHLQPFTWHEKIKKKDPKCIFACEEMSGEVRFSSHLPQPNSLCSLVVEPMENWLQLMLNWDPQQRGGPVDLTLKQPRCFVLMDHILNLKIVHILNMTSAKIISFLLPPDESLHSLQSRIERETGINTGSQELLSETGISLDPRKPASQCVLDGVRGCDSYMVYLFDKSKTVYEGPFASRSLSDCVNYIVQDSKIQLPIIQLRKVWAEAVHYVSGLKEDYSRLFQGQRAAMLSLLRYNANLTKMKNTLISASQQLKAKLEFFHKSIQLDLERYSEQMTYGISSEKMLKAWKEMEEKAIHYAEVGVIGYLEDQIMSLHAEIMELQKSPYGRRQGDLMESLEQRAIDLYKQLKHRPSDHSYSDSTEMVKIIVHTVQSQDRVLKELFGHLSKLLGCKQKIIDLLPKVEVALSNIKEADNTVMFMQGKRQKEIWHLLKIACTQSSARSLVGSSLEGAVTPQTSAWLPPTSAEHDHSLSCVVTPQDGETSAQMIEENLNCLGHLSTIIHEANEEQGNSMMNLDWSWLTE

Measured: residual activity

Chain of Phosphatidylinositol 4-phosphate 3-kinase C2 domain-containing subunit beta (Homo sapiens) (O00750 whole entry, the tested form may be a part): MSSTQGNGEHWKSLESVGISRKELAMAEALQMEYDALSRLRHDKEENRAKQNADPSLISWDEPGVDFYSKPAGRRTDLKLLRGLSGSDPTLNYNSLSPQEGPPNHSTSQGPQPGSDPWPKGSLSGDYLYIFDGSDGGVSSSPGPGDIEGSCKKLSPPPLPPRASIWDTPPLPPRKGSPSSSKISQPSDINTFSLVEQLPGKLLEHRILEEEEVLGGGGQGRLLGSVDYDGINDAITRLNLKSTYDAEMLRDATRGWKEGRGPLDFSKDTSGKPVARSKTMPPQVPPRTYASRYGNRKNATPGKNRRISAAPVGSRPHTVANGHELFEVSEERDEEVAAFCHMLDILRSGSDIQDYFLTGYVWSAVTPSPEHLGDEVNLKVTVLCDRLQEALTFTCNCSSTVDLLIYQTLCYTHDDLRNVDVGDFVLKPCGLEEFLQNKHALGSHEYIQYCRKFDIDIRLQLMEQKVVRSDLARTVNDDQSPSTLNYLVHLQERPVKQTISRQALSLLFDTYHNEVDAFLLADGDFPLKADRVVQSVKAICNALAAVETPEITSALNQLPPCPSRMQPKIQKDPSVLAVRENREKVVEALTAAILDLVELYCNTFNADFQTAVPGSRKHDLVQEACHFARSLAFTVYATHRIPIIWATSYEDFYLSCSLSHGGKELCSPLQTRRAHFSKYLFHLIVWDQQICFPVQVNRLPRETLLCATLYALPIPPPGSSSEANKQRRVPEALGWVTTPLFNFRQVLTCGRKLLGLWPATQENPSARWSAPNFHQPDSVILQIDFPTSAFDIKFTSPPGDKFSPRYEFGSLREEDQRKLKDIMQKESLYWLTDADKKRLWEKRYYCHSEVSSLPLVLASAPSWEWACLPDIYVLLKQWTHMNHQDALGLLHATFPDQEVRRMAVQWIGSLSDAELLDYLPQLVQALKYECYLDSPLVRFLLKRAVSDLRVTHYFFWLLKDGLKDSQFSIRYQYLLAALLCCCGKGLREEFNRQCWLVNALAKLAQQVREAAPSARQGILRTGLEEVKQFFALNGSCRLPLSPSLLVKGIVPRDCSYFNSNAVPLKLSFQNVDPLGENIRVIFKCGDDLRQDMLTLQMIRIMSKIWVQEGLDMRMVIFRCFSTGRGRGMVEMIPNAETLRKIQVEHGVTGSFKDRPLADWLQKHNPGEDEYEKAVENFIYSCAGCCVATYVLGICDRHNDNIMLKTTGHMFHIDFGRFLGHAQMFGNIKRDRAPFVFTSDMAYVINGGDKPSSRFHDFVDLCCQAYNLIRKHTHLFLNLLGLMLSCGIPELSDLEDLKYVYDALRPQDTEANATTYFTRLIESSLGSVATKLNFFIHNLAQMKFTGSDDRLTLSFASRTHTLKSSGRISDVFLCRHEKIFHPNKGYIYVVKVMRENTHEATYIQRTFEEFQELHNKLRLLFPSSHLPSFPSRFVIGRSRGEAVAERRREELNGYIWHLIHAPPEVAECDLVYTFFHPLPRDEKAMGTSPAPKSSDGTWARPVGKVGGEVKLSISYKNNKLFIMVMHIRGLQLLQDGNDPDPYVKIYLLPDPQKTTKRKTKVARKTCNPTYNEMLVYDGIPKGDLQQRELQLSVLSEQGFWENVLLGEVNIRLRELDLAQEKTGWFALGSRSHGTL
Chain of Serine/threonine-protein kinase tousled-like 2 (Homo sapiens) (Q86UE8 whole entry, looked up): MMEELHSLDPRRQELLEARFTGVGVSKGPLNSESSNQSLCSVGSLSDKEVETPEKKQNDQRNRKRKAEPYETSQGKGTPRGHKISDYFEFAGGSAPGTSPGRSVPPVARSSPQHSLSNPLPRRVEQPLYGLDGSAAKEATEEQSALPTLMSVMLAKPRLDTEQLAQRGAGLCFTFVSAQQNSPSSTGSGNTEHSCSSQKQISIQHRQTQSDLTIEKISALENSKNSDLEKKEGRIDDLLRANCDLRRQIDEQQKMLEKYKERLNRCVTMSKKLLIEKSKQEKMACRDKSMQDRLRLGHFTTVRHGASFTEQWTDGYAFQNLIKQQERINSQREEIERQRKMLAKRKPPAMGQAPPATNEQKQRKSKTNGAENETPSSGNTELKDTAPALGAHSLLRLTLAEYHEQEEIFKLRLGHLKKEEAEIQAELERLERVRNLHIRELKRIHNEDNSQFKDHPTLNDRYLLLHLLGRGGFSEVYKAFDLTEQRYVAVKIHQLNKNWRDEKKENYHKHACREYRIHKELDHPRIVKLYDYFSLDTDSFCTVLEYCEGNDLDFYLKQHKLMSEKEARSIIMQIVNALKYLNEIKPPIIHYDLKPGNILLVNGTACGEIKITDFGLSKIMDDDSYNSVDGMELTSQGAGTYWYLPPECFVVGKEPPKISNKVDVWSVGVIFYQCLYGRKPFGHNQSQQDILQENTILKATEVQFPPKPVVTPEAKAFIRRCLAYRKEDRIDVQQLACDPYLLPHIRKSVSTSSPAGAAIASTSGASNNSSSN
Chain of Megakaryocyte-associated tyrosine-protein kinase (Homo sapiens) (P42679 whole entry): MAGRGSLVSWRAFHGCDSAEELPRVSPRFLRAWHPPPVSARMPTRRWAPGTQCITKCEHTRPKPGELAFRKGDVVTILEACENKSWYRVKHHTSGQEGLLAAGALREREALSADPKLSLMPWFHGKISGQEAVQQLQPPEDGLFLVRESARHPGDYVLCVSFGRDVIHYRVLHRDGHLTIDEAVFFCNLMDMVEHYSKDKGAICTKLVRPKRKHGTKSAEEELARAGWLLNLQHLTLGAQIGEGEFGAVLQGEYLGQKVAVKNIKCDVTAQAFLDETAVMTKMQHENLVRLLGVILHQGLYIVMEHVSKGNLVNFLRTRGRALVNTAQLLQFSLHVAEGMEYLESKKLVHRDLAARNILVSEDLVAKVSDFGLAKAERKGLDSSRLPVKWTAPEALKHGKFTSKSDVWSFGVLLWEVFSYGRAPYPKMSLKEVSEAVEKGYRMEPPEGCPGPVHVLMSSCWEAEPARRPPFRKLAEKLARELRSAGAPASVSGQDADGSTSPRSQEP

Cc1nc(C2CCN(C(=O)c3ccc(OC(F)(F)F)cc3N)CC2)c2ncc(N3CCN(C)CC3)cc2n1 [BAY-693]
inactive: [1] 86% | [2] 71% | [3] 100% | [4] 100% | [5] 84% | [6] 84%

CN1CCN(c2cnc3c(C4CCN(C(=O)c5ccc(OC(F)(F)F)cc5N)CC4)ncnc3c2)CC1 [BAY-885]
inactive: [1] 98% | [2] 73% | [3] 100% | [4] 89% | [5] 100% | [6] 100%
